≈ marks a conversion by molar mass, not a printed value. Calls of active or inactive are those of the source. The calls are words filed in the database; no cut-off is given here.
Assays:
MCF7 [1] = test: Induction of apoptosis in human MCF7 cells assessed as formation of intact nuclei at 5 ug/ml after 48 hrs using acridine orange and ethidium bromide staining by light microscopic analysis; assay type: functional, cell-based
MCF7 [2] = test: Induction of apoptosis in human MCF7 cells assessed as formation of chromatin condensation at 10 ug/ml after 48 hrs using acridine orange and ethidium bromide staining by light microscopic analysis; assay type: functional, cell-based
MCF7 [3] = test: Cell cycle arrest in human MCF7 cells assessed as accumulation at G2/M phase at 5 ug/ml after 48 hrs using propidium iodide staining by flow cytometry analysis (reference value: 25.8%); assay type: functional
MCF7 [4] = test: Cell cycle arrest in human MCF7 cells assessed as accumulation at G0/G1 phase at 10 ug/ml after 48 hrs using propidium iodide staining by flow cytometry analysis (reference value: 47.3%); assay type: functional
HeLa = test: Cytotoxicity against human HeLa cells after 48 hrs by MTT assay; assay type: functional, cell-based
MCF7 [5] = test: Cell cycle arrest in human MCF7 cells assessed as accumulation at G0/G1 phase at 5 ug/ml after 48 hrs using propidium iodide staining by flow cytometry analysis (reference value: 47.3%); assay type: functional
MCF7 [6] = test: Cell cycle arrest in human MCF7 cells assessed as accumulation at G2/M phase at 10 ug/ml after 48 hrs using propidium iodide staining by flow cytometry analysis (reference value: 25.8%); assay type: functional
MCF7 [7] = test: Cell cycle arrest in human MCF7 cells assessed as accumulation at S phase at 5 ug/ml after 48 hrs using propidium iodide staining by flow cytometry analysis (reference value: 12.7%); assay type: functional
Candida albicans = test: Antimicrobial activity against Candida albicans by cup plate diffusion method; assay type: functional
MCF7 [8] = test: Cytotoxicity against human MCF7 cells after 48 hrs by MTT assay; assay type: functional, cell-based; settings: MCF7, 48 h
MCF7 [9] = test: Induction of apoptosis in human MCF7 cells assessed late apoptotic cells at 10 ug/ml after 48 hrs using annexin V/propidium iodide staining by muse cell analyzer analysis (reference value: 11.89%); assay type: functional
MCF7 [10] = test: Induction of apoptosis in human MCF7 cells assessed live cells at 10 ug/ml after 48 hrs using annexin V/propidium iodide staining by muse cell analyzer analysis (reference value: 81.07%); assay type: functional
Priestia megaterium = test: Antimicrobial activity against Bacillus megaterium by cup plate diffusion method; assay type: functional
A549 = test: Cytotoxicity against human A549 cells after 48 hrs by MTT assay; assay type: functional, cell-based; settings: A549, 48 h
MCF7 [11] = test: Induction of apoptosis in human MCF7 cells assessed as decrease of mitochondrial membrane potential after 12 hrs using JC-1 dye by fluorescence microscopic analysis; assay type: functional, cell-based
MCF7 [12] = test: Induction of apoptosis in human MCF7 cells assessed as formation of extremely condensed chromatin at 5 ug/ml after 48 hrs using acridine orange and ethidium bromide staining by light microscopic analysis; assay type: functional, cell-based
Escherichia coli = test: Antimicrobial activity against Escherichia coli by cup plate diffusion method; assay type: functional
MCF7 [13] = test: Induction of apoptosis in human MCF7 cells assessed dead cells at 5 ug/ml after 48 hrs using annexin V/propidium iodide staining by muse cell analyzer analysis (reference value: 1.04%); assay type: functional
MCF7 [14] = test: Induction of apoptosis in human MCF7 cells assessed early apoptotic cells at 5 ug/ml after 48 hrs using annexin V/propidium iodide staining by muse cell analyzer analysis (reference value: 6%); assay type: functional
[15] = Cytotoxicity against human PC3 cells after 48 hrs by MTT assay; assay type: functional, cell-based; settings: PC-3, 48 h
MCF7 [16] = test: Induction of apoptosis in human MCF7 cells assessed dead cells at 10 ug/ml after 48 hrs using annexin V/propidium iodide staining by muse cell analyzer analysis (reference value: 1.04%); assay type: functional
MCF7 [17] = test: Induction of apoptosis in human MCF7 cells assessed late apoptotic cells at 5 ug/ml after 48 hrs using annexin V/propidium iodide staining by muse cell analyzer analysis (reference value: 11.89%); assay type: functional
MCF7 [18] = test: Induction of apoptosis in human MCF7 cells assessed live cells at 5 ug/ml after 48 hrs using annexin V/propidium iodide staining by muse cell analyzer analysis (reference value: 81.07%); assay type: functional
MCF7 [19] = test: Cell cycle arrest in human MCF7 cells assessed as accumulation at S phase at 10 ug/ml after 48 hrs using propidium iodide staining by flow cytometry analysis (reference value: 12.7%); assay type: functional
Pseudomonas sp. = test: Antimicrobial activity against Pseudomonas sp. by cup plate diffusion method; assay type: functional
MCF7 [20] = test: Induction of apoptosis in human MCF7 cells assessed as formation of cell membrane blebbing at 10 ug/ml after 48 hrs using acridine orange and ethidium bromide staining by light microscopic analysis; assay type: functional, cell-based
MCF7 [21] = test: Induction of apoptosis in human MCF7 cells assessed as formation of nuclear fragmentation at 10 ug/ml after 48 hrs using acridine orange and ethidium bromide staining by light microscopic analysis; assay type: functional, cell-based
HT-29 = test: Cytotoxicity against human HT-29 cells after 48 hrs by MTT assay; assay type: functional, cell-based; settings: HT-29, 48 h
Bacillus subtilis = test: Antimicrobial activity against Bacillus subtilis by cup plate diffusion method; assay type: functional
MCF7 [22] = test: Induction of apoptosis in human MCF7 cells assessed early apoptotic cells at 10 ug/ml after 48 hrs using annexin V/propidium iodide staining by muse cell analyzer analysis (reference value: 6%); assay type: functional

**Q.** What does the source list for `OC[C@@H]1C[C@H](CO)[C@@H]2C(c3ccc4ccccc4c3)=NO[C@H]12`?
**A.** Activity (MCF7 [1]): Active; Activity (MCF7 [2]): Active; Activity (MCF7 [3]): 24.8%; Activity (MCF7 [4]): 35.7%; IC50 (HeLa): 24.5 µg/mL (≈ 82.4 µM); Activity (MCF7 [5]): 44.7%; Activity (MCF7 [6]): 22.6%; Activity (MCF7 [7]): 14.9%; MIC (Candida albicans): > 100 µg/mL; IC50 (MCF7 [8]): 11.5 µg/mL (≈ 38.7 µM); Activity (MCF7 [9]): 18.85%; Activity (MCF7 [10]): 32.21%; MIC (Priestia megaterium): 26 µg/mL (≈ 87.4 µM); IC50 (A549): > 50 µg/mL; Activity (MCF7 [11]): Dose-dependent effect; Activity (MCF7 [12]): Active; MIC (Escherichia coli): > 100 µg/mL; Activity (MCF7 [13]): 4.06%; Activity (MCF7 [14]): 24.94%; IC50 [15]: 48.4 µg/mL (≈ 163 µM); Activity (MCF7 [16]): 0.61%; Activity (MCF7 [17]): 15.91%; Activity (MCF7 [18]): 55.08%; Activity (MCF7 [19]): 27.5%; MIC (Pseudomonas sp.): > 100 µg/mL; Activity (MCF7 [20]): Active; Activity (MCF7 [21]): Active; IC50 (HT-29): 14.3 µg/mL (≈ 48.1 µM); MIC (Bacillus subtilis): 26 µg/mL (≈ 87.4 µM); Activity (MCF7 [22]): 48.32%
